Assay results as given in patent publication US9895363B2, “Methods for modulating function of proliferating cell nuclear antigen (PCNA) and treating cancer with PCNA-targeting compounds” (University of Cincinnati, priority 2010, dated 2018).
pIC50: −log10 of the molar value. Like-named read-outs stand apart in the source and are kept apart here.

Legend:
[1] = system: primary mouse spleen lymphocytes; assay: Alamar blue assay of lymphocyte growth; type: cell-based; conditions: for pIC50: Lymphocyte
Description: IC50 values were derived from growth inhibition curves. Data for tumor cells are a mean of five to seven experiments. Data for primary cells are a mean of three experiments. […] Inhibition of cell growth was calculated using the formula: growth inhibition (%)=(1−A570 of treated/A570 of control)×100. IC50 (the concentration that inhibited cell growth by 50%) values were also determined. For evaluation of lymphocyte growth in suspension, an Alamar blue assay was performed, wherein freshly prepared mouse spleen lymphocytes were stimulated for 72 H with 2 ug/mL concanavalin A (Sigma Chemicals, St. Louis, […].). During the last 24 H, 20 μl/well of Alamar blue (Invitrogen, Carlsbad, Calif.) was added. The fluorescence intensity was measured at 530/580 (excitation/emission) in the FLUOstar Omega microplate reader (BMG LABTECH, Cary, N.C.).
The effects of PCNA-I1 on growth of tumor cells versus primary cells was also investigated. Specifically, the effects of PCNA-1I on the growth of primary cells was investigated using primary culture of mouse lymphocytes. An Alamar blue assay was performed with PC-3 cells as a positive control. Freshly prepared mouse spleen lymphocytes were stimulated for 72 H with 2 μg/mL of concanavalin A. During the last 24 H, 20 μL/well of alamar blue was added. The fluorescence intensity was measured at 530/580 (excitation/emission).

PC-3 cells = assay: Cell cycle distribution by flow cytometry, PC-3; type: cell-based, Human
Description: The effects of PCNA inhibitors on cell cycle progression were investigated via flow cytometry analysis. Specifically, PC-3 cells were plated into 60 mm plates at 2×10^5 cells/plate and were allowed to attach overnight.
The cells were rinsed with HBSS, detached by trypsinization, suspended in MEM-5% FBS, pelleted by centrifugation, resuspended in PI staining solution (PBS containing 50 μg/mL PI, 100 μg/mL RNase A, and 0.05% Triton X-100), and incubated for 45 min at 37° C. After washing with PBS, the cells were resuspended in PBS for flow cytometry analysis in an Epics-XL-MCL system (Beckman Coulter, Fullerton, Calif.). Thirty thousand cells at each time point were collected to determine their DNA content and to obtain flow cytometric fluorescence histograms (X-axis fluorescence, Y-axis cell number). The three fractions (G0/G1, G2/M and S) were quantified by using the Synchronization Wizard of ModFit LT Flow Cytometry Cell-cycle Analysis Softward (Verity Software House, Topsham, Me.).
Flow cytometry analysis was also performed on cells in which endogenous PCNA was knocked down with transfection of PCNA-specific siRNA. Specifically, PC-3 cells were plated into a 60-mm plate at 2×10^5/plate in antibiotics-free medium and transfected with 200 pmol PCNA specific siRNA or control scrambled siRNA for 24 H using Lifectamine 2000. The cells were then cultured in SFM for 24 H, followed by incubation in fresh SFM or stimulation with medium supplemented with 5% FBS, and sampled at different times for analyses. The PC-3 cells were also subjected to western blot analysis. Specifically, cells were washed and scraped into a lysis buffer (1% Triton X-100, 20 mM Tris-HCl, pH 8.0, 137 mM NaCl, 10% glycerol, 2 mM EDTA, 1 mM PMSF, and a protease inhibitor cocktail) and analyzed by Western blotting analysis as described by Zhang et al. in Tumor-infiltrating Macrophages are Involved in Suppressing Growth and Metastasis of Human Prostate Cancer Cells by INF-beta Gene Therapy in Nude Mice; Clin. Cancer Res. 2002; 8:29:2942-51. Samples were collected at 0 H (48 H after transfection), 24 H, 48 H, and 72 H, respectively.
(§1) Fluorescence-activated cell sorting (FACS) analysis was performed on both PC-3 cells and LNCaP cells using PCNA-I1. Specifically, cells were treated with 1 or 10 μM PCNA-I1 and sampled for the flow cytometry analysis at 24 H, 48 H, and 72 H. Expression of DNA damage and apoptosis-related proteins in PC-3 cells and LNCaP cells was also determined. Cisplatin, a well-known drug that induces DNA damage and apoptosis, was included in the experiment. LNCaP cells were treated for 6 H, 12 H, or 18 H with 10 μM PCNA-I1, 10 μM cisplatin, or both.

LNCaP cells = assay: FACS analysis, LNCaP; type: cell-based, Human; conditions: particularly at 10 μM; FIG. 16
Description: as §1

22Rv1 cells = assay: 22Rv1 tumor model in male nude mice; type: in vivo; conditions: 10 mg/kg i.p., three times/week
Description: (§2) The therapeutic effects of PCNA-I1 were evaluated in LNCaP cells and 22Rv1 tumor models. LNCaP or 22Rv1 cells (1-2×10^6 cells in gelfoam) were implanted into the subcutis of male nude mice. From four to five days later, tumor-bearing mice were intraperitoneally injected with 10 mg/kg or 50 mg/kg of PCNA-I1. The therapy was continued at three times/week until termination of experiments. Control and treated tumor-bearing mice were monitored daily. Mouse body weight was recorded for toxicity evaluation twice a week and tumor size was measured using calipers twice a week. The experiments were terminated when mice in control groups were moribund. Additionally, to further evaluate potential liver and renal toxicity of PCNA-I1, the blood of tumor-bearing mice were sampled after the treatment with PCNA-I1 for 8 weeks.

[2] = Toxicity evaluation in tumor-bearing mice; type: in vivo
Description: as §2

[3] = 1 μM, 5% FBS after serum starvation, FIGS. 4 and 5

Cc1ccsc1C(=O)N/N=C/c1ccc2ccccc2c1O [PCNA-I1]
pIC50 ([1]; FIG. 2(B), Alamar blue assay, mouse spleen lymphocytes, read-out: IC50, lymphocytes): 5.82 | pIC50 ([1]; Mouse, normal cells, Alamar blue, read-out: IC50 Values, Spleen Lymphocytes): 5.82 | Lymphocyte growth at low concentrations ([1]; with or without concanavalin A): promoted lymphocyte growth at concentrations below the cytotoxic or cytostatic doses | Cells in G1 phase (PC-3 cells; 1 μM, 5% FBS after serum starvation, 24-72 H, FIGS. 4 and 5): partially attenuated the serum-stimulated G1 decrease at 24 H but led to significant G1 reductions at 48 H and 72 H | Cells in S phase (PC-3 cells; [3]): significantly increased at 24 H | G2/M fraction of cells (PC-3 cells; [3]): increased steadily at 48 H and 72 H | Cell cycle effect, PC-3, 1 μM (PC-3 cells; 1 μM, FIG. 15): cell growth arrest at S and G2/M phases | Cell cycle effect, PC-3, 10 μM (PC-3 cells; 10 μM, FIG. 15): more significant G1 arrest | Apoptosis, PC-3 (PC-3 cells; 1 or 10 μM, 24, 48, 72 H): Apoptosis was not observed | Apoptosis, LNCaP (sub-G1 population) (LNCaP cells): induced significant apoptosis | Tumor growth, 22Rv1 model (22Rv1 cells): retarded tumor growth | Body weight of tumor-bearing mice ([2]; 10 or 50 mg/kg i.p. every other day, up to 8 weeks): did not cause significant reduction in the body weight | Aspartate transaminase (AST or SGOT) ([2]; treatment for 8 weeks, FIG. 21): not significantly altered | Blood urea nitrogen (BUN) ([2]; treatment for 8 weeks, FIG. 21): not significantly altered | Serum alanine transaminase (ALT or SGPT) ([2]; treatment for 8 weeks, FIG. 21): not significantly altered
